Like-named read-outs stand apart in the source and are kept apart here.
Tests used:
[1] = system: women with sexual dysfunction; test: external application of misoprostol to the clitoris or/and to the vagina; assay type: in vivo; settings: for local vasodilation after external application: used externally to the clitoris or/and to the vagina
From the text: Because of the local vasodilation is caused tumescence of the clitoris, intence bleeding of the vagina and feeling of sexual desire. Simultaneously, in women with anorgasmia of various causes, promote after masturbation or sexual intercourse, the coming of orgasm.
Method of application: 0.1 (or more, depending on responce) are applied to the clitoris or/and to the vagina.
(§1) As had already been mentioned, misoprostol is an extremely hydrophile molecule compared with other prostaglandins of E1 series (e.g. with alprostadil which can be dissolved in alcohol but her solubility in water is only 8000 mcg/100 ml at 35° C.).

solubility in water = assay type: physicochemical
Protocol: as §1

patients = settings: cited from earlier work
[2] = at 35° C.; cited from earlier work

CCCCC(C)(O)C/C=C/[C@H]1[C@H](O)CC(=O)[C@@H]1CCCCCCC(=O)O (mixture of isomers) [misoprostol acid]
local vasodilation after external application [1]: Equally strong topical vasodilation

CCCCC(C)(O)C/C=C/[C@H]1[C@H](O)CC(=O)[C@@H]1CCCCCCC(=O)OC (mixture of isomers) [Misoprostol, (11a,13E)-(±)-11,16-Dihydroxy-16-methyl-9-oxoprost-13-en-1-oic acid methyl ester]
time of appearance of the result ([1]; external application of the example forms): 20 to 40 min | systematic undesirable effects ([1]; high once only doses >1000 mcg to the clitoris or to the vagina): shudder, feeling of hard ship, excitement and diarrhea | misoprostol action in the presence of Polysorbate "80" ([1]; in the presence of Polysorbate "80"): important reduction or/and neutralization | change of misoprostol activity as a function of pH ([1]; pH of the pharmacotechnical form): No significant changes | undesirable effects in the presence of a-cyclodextrine ([1]; presence of a-cyclodextrine): reduces the undesirable effects | local vasodilation after external application [1]: strong local vasodilation | solubility in water (solubility in water): can be dissolved in water | carcinogenic or teratogenic effect (patients; in vivo): hasn't been accused | effect on uterus (patients; in vivo): irritation of the smooth uterine fibbers | undesirable effects in oral therapy (patients; oral therapy): male impotence

CCCCC[C@H](O)/C=C/[C@H]1[C@H](O)CC(=O)[C@@H]1CCCCCCC(=O)O [alprostadil]
solubility in water [2]: 8000 mcg/100 ml

Source: patent US6897239B1, “Use of misoprostol and/or metabolites of misoprostol for treating sexual dysfunction in women” (Lavipharm S.A., priority 1998, dated 2005)
